# Measured values taken from ChEMBL document CHEMBL1130085, “Substituted 3-(phenylsulfonyl)-1-phenylimidazolidine-2,4-dione derivatives as novel nonpeptide inhibitors of human heart chymase” (J Med Chem, 1997).
# How the values were obtained:
# Chymotrypsinogen A = Chymotrypsinogen A (Bos taurus, UniProt P00766); test: Inhibitory activity against bovine pancreas alpha-chymotrypsin in vitro
# Chymase = molecular target: T1, Chymase (Homo sapiens, UniProt P23946); test: Inhibitory activity against human heart chymase in vitro.
# T1 sequence (P23946 whole entry): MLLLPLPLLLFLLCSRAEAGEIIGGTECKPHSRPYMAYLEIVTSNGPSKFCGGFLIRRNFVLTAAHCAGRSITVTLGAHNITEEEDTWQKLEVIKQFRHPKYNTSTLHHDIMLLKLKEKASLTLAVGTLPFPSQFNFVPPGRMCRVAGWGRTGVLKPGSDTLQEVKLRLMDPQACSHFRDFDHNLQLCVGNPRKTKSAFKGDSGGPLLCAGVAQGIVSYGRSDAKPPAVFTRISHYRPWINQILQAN
# Cathepsin G = molecular target: T2, Cathepsin G (Homo sapiens, UniProt P08311); test: Inhibitory activity against human neutrophil cathepsin G.
# T2 sequence (P08311 whole entry): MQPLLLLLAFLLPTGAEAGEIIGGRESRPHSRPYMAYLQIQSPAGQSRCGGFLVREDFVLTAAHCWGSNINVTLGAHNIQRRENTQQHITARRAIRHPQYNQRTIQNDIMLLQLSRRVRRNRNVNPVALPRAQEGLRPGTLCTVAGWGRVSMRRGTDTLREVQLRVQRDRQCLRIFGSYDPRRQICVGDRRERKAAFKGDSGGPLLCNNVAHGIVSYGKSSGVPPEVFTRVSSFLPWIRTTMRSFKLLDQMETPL
SMILES,IC50 (Chymotrypsinogen A) [µM],IC50 (Chymase) [µM],IC50 (Cathepsin G) [µM]
O=C1CN(c2ccccc2)C(=O)N1S(=O)(=O)c1ccc(Br)cc1,2.4,0.17,
O=C1CN(c2ccccc2)C(=O)N1C(=O)c1ccccc1,0.048,20,7
COC(=O)Cc1cccc(S(=O)(=O)N2C(=O)CN(c3ccccc3)C2=O)c1,4,,5.4
O=C1CN(c2ccc(Cl)c(Cl)c2)C(=O)N1S(=O)(=O)c1ccc(Cl)cc1,4,0.023,22
Cc1ccc(S(=O)(=O)N2C(=O)CN(c3ccccc3)C2=O)cc1C,2,0.03,
O=C1CN(c2ccccc2Oc2ccccc2)C(=O)N1S(=O)(=O)c1ccc(Cl)cc1,37,,5.9
O=C1CN(c2ccccc2)C(=O)N1S(=O)(=O)Cc1ccccc1,37,> 100,
COC(=O)c1cccc(S(=O)(=O)N2C(=O)CN(c3ccccc3)C2=O)c1,1.7,,
O=C(O)c1ccc(S(=O)(=O)N2C(=O)CN(c3ccccc3)C2=O)cc1,44,,1.9
O=C1CN(c2ccccc2)C(=O)N1S(=O)(=O)c1cccc(Cl)c1,> 100,0.13,2.5
Cc1ccc(N2CC(=O)N(S(=O)(=O)c3ccc(Cl)c(Cl)c3)C2=O)cc1C,63,0.02,
O=C1CN(c2ccccc2)C(=O)N1S(=O)(=O)c1ccccc1,1.4,,4.5
N#Cc1cccc(S(=O)(=O)N2C(=O)CN(c3ccccc3)C2=O)c1,0.73,,
O=C1CN(c2ncccn2)C(=O)N1S(=O)(=O)c1ccc(Cl)cc1,52,33,
O=C(O)c1ccc(N2CC(=O)N(S(=O)(=O)c3ccc(Cl)cc3)C2=O)cc1,42,,> 100
CC(=O)Nc1ccc(N2CC(=O)N(S(=O)(=O)c3ccc(Cl)cc3)C2=O)cc1,> 100,> 100,> 100
O=C1CN(c2ccc(Cl)c(Cl)c2)C(=O)N1S(=O)(=O)c1ccc(Cl)c(Cl)c1,3.7,0.17,3.7
Cc1ccc(N2CC(=O)N(S(=O)(=O)c3ccc(Cl)cc3)C2=O)cc1C,43,0.035,3.7
O=C1CN(c2ccccc2)C(=O)N1C(=O)c1ccc(Cl)cc1,0.23,> 100,3
O=C1CN(c2ccccn2)C(=O)N1S(=O)(=O)c1ccc(Cl)cc1,> 100,18,
COC(=O)Cc1ccc(S(=O)(=O)N2C(=O)CN(c3ccccc3)C2=O)cc1,11,,6.5
CN1CCN(C(=O)c2cccc(S(=O)(=O)N3C(=O)CN(c4ccccc4)C3=O)c2)CC1,1.4,0.9,4.8
COc1ccc(S(=O)(=O)N2C(=O)CN(c3ccccc3)C2=O)cc1,5.8,,4.2

SMILES,IC50 (Chymotrypsinogen A) [µM],IC50 (Chymase) [µM],IC50 (Cathepsin G) [µM]
O=C1CN(c2ccccc2)C(=O)N1S(=O)(=O)c1ccccc1Cl,1.2,1.1,2.2
COc1ccc(N2CC(=O)N(S(=O)(=O)c3ccc(Cl)cc3)C2=O)cc1OC,> 100,14,> 100
COC(=O)c1ccc(S(=O)(=O)N2C(=O)CN(c3ccccc3)C2=O)cc1,1.8,,
O=C1CN(c2ccccc2)C(=O)N1S(=O)(=O)c1ccc(Oc2ccccc2)cc1,8,,3.7
O=C1CN(S(=O)(=O)c2ccc(Cl)cc2)C(=O)N1c1ccc(Cl)cc1,> 100,> 100,
Cc1ccccc1S(=O)(=O)N1C(=O)CN(c2ccccc2)C1=O,1.1,1.8,1.8
O=C1CN(c2ccccc2Cl)C(=O)N1S(=O)(=O)c1ccc(Cl)cc1,20,0.22,2
O=C1CN(c2ccccc2)C(=O)N1S(=O)(=O)c1ccc(F)cc1,2.6,0.37,1.5
N#Cc1ccc(S(=O)(=O)N2C(=O)CN(c3ccccc3)C2=O)cc1,15,,
O=C1CN(c2cccc(Cl)c2)C(=O)N1S(=O)(=O)c1ccc(Cl)cc1,0.2,0.066,
CN1CCN(C(=O)c2ccc(S(=O)(=O)N3C(=O)CN(c4ccccc4)C3=O)cc2)CC1,6.4,3.3,
O=C1CN(C2CCCCC2)C(=O)N1S(=O)(=O)c1ccc(Cl)cc1,30,35,
O=C1CN(c2ccccc2)C(=O)N1S(=O)(=O)c1ccc(Cl)cc1,1.1,,
CN1CCN(C(=O)c2ccc(N3CC(=O)N(S(=O)(=O)c4ccc(Cl)cc4)C3=O)cc2)CC1,> 100,27,> 100
O=C(O)c1ccccc1N1CC(=O)N(S(=O)(=O)c2ccc(Cl)cc2)C1=O,73,,
O=C1CN(c2ccccc2)C(=O)N1S(=O)(=O)c1ccc(Cl)c(Cl)c1,3.8,0.018,
O=C(O)c1cccc(N2CC(=O)N(S(=O)(=O)c3ccc(Cl)cc3)C2=O)c1,> 100,,> 100
Cc1ccc(N2CC(=O)N(S(=O)(=O)c3ccc(C)c(C)c3)C2=O)cc1C,> 100,,
O=C(O)c1cccc(S(=O)(=O)N2C(=O)CN(c3ccccc3)C2=O)c1,8.5,,1
COc1ccc(S(=O)(=O)N2C(=O)CN(c3ccccc3)C2=O)cc1OC,> 100,,4.1
O=C(OCN1C(=O)CN(c2ccccc2)C1=O)c1ccccc1,> 100,> 100,> 100
O=C1CN(c2ccccc2)C(=O)N1S(=O)(=O)c1ccc([N+](=O)[O-])cc1,8,,6.5
COc1ccc(S(=O)(=O)N2C(=O)CN(c3ccc(C)c(C)c3)C2=O)cc1OC,> 100,0.022,> 100
